Results on seven molecules are retold here after PubChem BioAssay (NCI).

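Cells were grown in 96-well plates and exposed to each compound for 48 hours at five concentrations; endpoints were interpolated linearly between bracketing concentrations, or set to the highest concentration if not reached. TGI: total growth inhibition.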

What all share (test): growth of human tumour cells (NCI), 48 h
Assay [1] has as its system MCF7 breast.
The subject of assay [2] is A498 renal.
Assay [3] deals with NCI-H23 lung.
Assay [4] relates to COLO 205 colon.
Assay [5] has as its system MDA-MB-231 breast.
The subject of assay [6] is NCI-H460 lung.
The test system of assay [7] is SK-OV-3 ovarian.
Assay [8] relates to SR leukemia.
The test system of assay [9] is T-47D breast.
In assay [10] the test system is OVCAR-4 ovarian.
Assay [11] concerns SK-MEL-28 melanoma.
Assay [12] has as its system U251 CNS.
In assay [13] the test system is IGROV1 ovarian.
The test system of assay [14] is BT-549 breast.
Assay [15] concerns SNB-19 CNS.
The subject of assay [16] is UO-31 renal.
The subject of assay [17] is NCI-H226 lung.
Assay [18] concerns TK-10 renal.
The subject of assay [19] is ACHN renal.
Assay [20] has as its system DU-145 prostate.

As for `CCOC(=O)c1c(NC(=O)OC)c(C#N)c2n1CCCCC2`, the TGI in [1] was more than 100 µM; in assay [2], more than 100 µM; in [3], more than 100 µM; in assay [4], more than 100 µM; in [5], 91.7 µM; in assay [6], more than 100 µM. Besides, the TGI in assay [7], in assay [8], in assay [9], in assay [10], in [11] and in [12] was more than 100 µM in each case. In addition, the TGI in assay [13], in [14], in assay [15], in [16], in assay [17] and in [18] was more than 100 µM in each case. Besides, the TGI in assay [19] was more than 100 µM; in [20], 43.9 µM.

Regarding `CC(C)N(C(=O)C1(O)c2ccccc2C=Cc2ccccc21)C(C)C`, the TGI is 31 µM in [1]; 29.8 µM in [2]; 34.2 µM in [3]; 33.4 µM in assay [4]; 29.3 µM in assay [5]; 53.9 µM in [7]. The TGI in assay [8] worked out at 63 µM; in [9], 37.1 µM; in assay [10], 52 µM; in assay [11], 31.4 µM; in assay [12], 30.5 µM; in assay [13], 28.8 µM. The TGI was 34.6 µM in assay [14]; 44.4 µM in [15]; 40.1 µM in assay [16]; 35.8 µM in [17]; 31.9 µM in assay [18]; 29.5 µM in [19]. The molecule further had a TGI in assay [20] of 33.1 µM.

With `C=CC1C(OC2OC(CO)C(O)C(O)C2O)OC=C(C(=O)OC)C1CC1CC(=O)CC(CCc2ccc(O)cc2)O1` (configuration not stated), the TGI in [1], in [2], in assay [3], in [4], in [5] and in [6] was more than 100 µM each time. For the same molecule, the TGI in assay [7], in [8], in assay [9], in assay [10], in [11] and in assay [12] was more than 100 µM throughout. Further, the TGI in assay [13], in assay [14], in assay [15], in assay [16], in [17] and in [18] was more than 100 µM each time. The TGI in [19] and in assay [20] was more than 100 µM each time.

With `Nc1nc(NCC2(CO)CC2)cc(=O)[nH]1`, the TGI in [1], in assay [2], in assay [3], in assay [4], in assay [5] and in assay [6] was more than 100 µM each time. For the same molecule, the TGI in [7], in assay [8], in assay [9], in assay [10], in assay [11] and in assay [12] was more than 100 µM in each case. Further, the TGI in [13], in [14], in assay [15], in [16], in assay [17] and in [19] was more than 100 µM throughout. Besides, the TGI in assay [20] is more than 100 µM.

As for `CCN1CCC(O)(/C=C/c2ccc(C)cc2)C(C(=O)/C=C/c2ccc(C)cc2)C1` (configuration not stated), the TGI in [1] was 6.36 µM; in assay [2], 24.6 µM; in [3] it was 18.5 µM; in assay [4] it was 4.45 µM; in assay [5], 5.48 µM; in assay [6] it was 16.7 µM. In addition, the TGI turned out to be 29.1 µM in [7]; 6.84 µM in assay [8]; 9.89 µM in assay [9]; 23 µM in assay [10]; 14.8 µM in [11]; 9.24 µM in assay [12]. In addition, the TGI came out at 17.5 µM in assay [13]; 13.7 µM in assay [14]; 23.5 µM in assay [15]; 12.4 µM in [16]; 29 µM in assay [17]; 14.4 µM in assay [18]. Moreover, the TGI in [19] was found to be 14.7 µM; in [20], 25.2 µM.

For the molecule `Cc1cc(C2CC(O)C(CO)O2)c(F)cc1F` (configuration not stated), the TGI in assay [1], in assay [2], in assay [3], in assay [4], in assay [5] and in [6] was more than 100 µM throughout. The TGI in [7], in [8], in [9], in [10], in assay [11] and in assay [12] was more than 100 µM each time. The TGI in [13], in assay [14], in assay [15], in assay [16], in [17] and in assay [18] was more than 100 µM in each case. Besides, the TGI in [19] and in assay [20] was more than 100 µM each time.

Turning to `CN(C)c1ccc(/C=N\NC(=O)Nc2cccc3ccccc23)cc1`, the TGI in assay [1] is 33 µM; in assay [2] it was 64.8 µM; in assay [3] it was 76 µM; in assay [4], more than 100 µM; in [5] it was 32.9 µM; in [6] it was 31.8 µM. The TGI is more than 100 µM in [8]; 19.8 µM in assay [9]; 40.4 µM in [10]; more than 100 µM in [11]; 39.5 µM in assay [12]; 36.6 µM in assay [13]. In addition, the TGI came to 72.4 µM in [14]; 7.5 µM in [15]; 51.6 µM in assay [16]; 9.06 µM in [17]; 36.7 µM in assay [18]; 38.5 µM in assay [19]. In [20], this molecule showed a TGI of 30.9 µM.
